These results are taken from the supplement of paper PMC10307832.

Experiment in all cases: relative viability (nuclei count vs DMSO), 5 days (fraction); higher = more cells survive
Compound in the assay “Apatinib + OSI-027”: N#CC1(c2ccc(NC(=O)c3cccnc3NCc3ccncc3)cc2)CCCC1 [Apatinib] + COc1cccc2cc(-c3nc([C@H]4CC[C@H](C(=O)O)CC4)n4ncnc(N)c34)[nH]c12 [OSI-027] (partner 0.5 µM)
Put shortly: (§1)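 For relative viability, nuclei counts in treated wells were divided by those in vehicle wells. Lung cancer cell lines had been pin-tool dosed in 1536-well plates the day after seeding and cultured for 5 days, then fixed and stained in one step (final 0.05% Triton X-100, 1% formaldehyde, 1 ug/ml Hoechst) and imaged at 4×. Doses were one drug alone or a fixed anchor-drug dose plus five library-drug doses (not always all listed) in √10 steps, and values are duplicate-plate medians.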

Compound in the assay “Metformin + Crizotinib”: CN(C)C(=N)NC(=N)N [Metformin] + C[C@@H](Oc1cc(-c2cnn(C3CCNCC3)c2)cnc1N)c1c(Cl)ccc(F)c1Cl [Crizotinib] (partner 1 µM)
Put shortly: as §1

Compound in the assay “Apatinib + Pemetrexed”: N#CC1(c2ccc(NC(=O)c3cccnc3NCc3ccncc3)cc2)CCCC1 [Apatinib] + Nc1nc2[nH]cc(CCc3ccc(C(=O)N[C@@H](CCC(=O)O)C(=O)O)cc3)c2c(=O)[nH]1 [Pemetrexed] (partner 0.2 µM)
Put shortly:
as §1

Compound in the assay “Metformin + Pemetrexed”: CN(C)C(=N)NC(=N)N [Metformin] + Nc1nc2[nH]cc(CCc3ccc(C(=O)N[C@@H](CCC(=O)O)C(=O)O)cc3)c2c(=O)[nH]1 [Pemetrexed] (partner 0.2 µM)
Put shortly:
as §1

In the case of NCI-H460, the relative viability with Apatinib + OSI-027 (first compound 0.08 µM) was determined as 0.799; with Apatinib + OSI-027 (first compound 0.253 µM), 0.746; with Apatinib + OSI-027 (first compound 0.8 µM), 0.491; with Apatinib + OSI-027 (first compound 2.53 µM), 0.541; in the assay with Apatinib + OSI-027 (first compound 8 µM) it was 0.333; with Metformin + Crizotinib (first compound 31.62 µM), 0.734. The relative viability is 0.778 with Metformin + Crizotinib (first compound 100 µM); 0.829 with Metformin + Crizotinib (first compound 316.23 µM); 0.916 with Metformin + Crizotinib (first compound 1000 µM); 0.0617 with Apatinib + Pemetrexed (first compound 0.08 µM); 0.0695 with Apatinib + Pemetrexed (first compound 0.253 µM); 0.0575 with Apatinib + Pemetrexed (first compound 0.8 µM). Further, the relative viability stood at 0.0757 with Apatinib + Pemetrexed (first compound 2.53 µM); 0.0845 with Apatinib + Pemetrexed (first compound 8 µM); 0.0599 with Metformin + Pemetrexed (first compound 31.62 µM); 0.0625 with Metformin + Pemetrexed (first compound 100 µM); 0.0535 in the assay with Metformin + Pemetrexed (first compound 316.23 µM); 0.0639 with Metformin + Pemetrexed (first compound 1000 µM).
